Like-named read-outs stand apart in the source and are kept apart here.
Experiments:
[1] = system: Cloudman S91 mouse melanoma cell line; assay: Melanin content of S91 cells after treatment with test compound; format: cell-based; settings: for melanogenesis in S91 cells (in words): PKC inhibitors; for induction of melanogenesis (in words): concentrations tested in Example 2
Method: The Cloudman S91 mouse melanoma cell line was obtained from American Type Culture Collection (ATCC). […] For testing propylene glycol and analogues for induction of melanogenesis, S91 cells were plated at 10^5 cells/35 mm dish in 10% calf serum. […] Cells were cultured for 6 days at 37° C. in 5% CO2 in a humidified incubator. Following this treatment period, cells were examined microscopically and the portion of dedifferentiated and differentiated cells was estimated.
Following this microscopic examination, cells were detached from dishes by trypsin. The time required for detachment by trypsin was recorded as an additional indicator of the phenotypic effects of test compounds. For each treatment, a subsample of cells was counted to determine the effects of treatment compounds on cellular proliferation. The remainder of cells were used for determination of melanin content. […] Absorbance of standards and samples was measured at 475 nm. Melanin was expressed as pg melanin/cell.

[2] = system: American short-haired guinea pigs; assay: Topical melanogenesis (pigmentation rating) in guinea pigs; format: in vivo, guinea pig; parameters: Pigmentation Rating / Pigmentation Rating Background Corrected: scale not given here; settings: for relative melanogenesis rating (mean ±SE), scale 0-4: 25 μl twice per day for 5 days, rated two weeks after
Method: Compounds were tested for melanogenic activity in vivo by application to American short-haired guinea pigs. Treatment sites were created by removal of fur using Nair® brand depilatory. In the Table, the numbers presented are the relative melanogenesis rating (mean ±SE), and are arranged according to the relative location on the animal, with the head being to the left and the tail being to the right. Propylene glycol (PG=13.6M), 2,3-butanediol (2,3-BD=10.95M), and 1,2-cis-cyclopentanediol (1,2-cs-CPD=10.7M) were applied as full strength solutions. 3,3-dimethyl-1,2-butanediol (3,3-M-1,2-BD) was applied as a 4M solution dissolved in ethanol. Two weeks following cessation of treatments, the degree of pigmentation was subjectively rated according to the following scale:
In order to minimize the effects of dimunition of response from head to tails of animals, all future experiments were done using only treatment spots located towards the tails of animals (c and d in Table 7). Deemed as additionally beneficial, in this area of the animal differences of responsiveness to strong and weak inducers of pigmentation, as deduced from cell culture, were greatest. […] Pigmentation ratings were corrected for background (control treatment spots), normalized to 1M to account for the different amounts of each agent applied, and then normalized to results for 1,2-PG (Table 8). […] It is anticipated that further improvements in formulation will additionally improve responsiveness to 5-NBene-2,2-DM and other compounds in this invention.
In FIG. 5, a, b, c and d indicate treatment spots that transverse the anterior-posterior axis along the backs of guinea pigs.

[3] = system: Cloudman S91 mouse melanoma cell line; assay: Microscopic morphology (differentiation) of S91 cells; format: cell-based
Method: (§1) The Cloudman S91 mouse melanoma cell line was obtained from American Type Culture Collection (ATCC). Cells were cultured in Dulbecco's Modified Eagles Medium (DMEM) containing 10% calf serum, 2 mM L-glutamine, 10 U Penicillin/ml and 10 ug Streptomycin/ml according to a previously published protocol (Eller, et al., Proc. Natl. Acad. Sci. 93:1087-92. 1996). For testing propylene glycol and analogues for induction of melanogenesis, S91 cells were plated at 10^5 cells/35 mm dish in 10% calf serum. One day after plating, media was removed and replaced with media containing 2% calf serum and test compounds (Eller, et al., 1996). Cells were cultured for 6 days at 37° C. in 5% CO2 in a humidified incubator. Following this treatment period, cells were examined microscopically and the portion of dedifferentiated and differentiated cells was estimated. Previous studies have shown that dedifferentiated S91 cells have a rounded, spindly appearance while differentiated S91 cells have a flattened, cuboidal, multipolar and dendritic appearance (Orlow, et al., Exp. Cell Res. 191:209-218, 1990).

[4] = system: Cloudman S91 mouse melanoma cell line; assay: Trypsinization detachment time of S91 cells; format: cell-based
Method: (§2) Following this microscopic examination, cells were detached from dishes by trypsin. The time required for detachment by trypsin was recorded as an additional indicator of the phenotypic effects of test compounds. For each treatment, a subsample of cells was counted to determine the effects of treatment compounds on cellular proliferation. The remainder of cells were used for determination of melanin content. Melanin was extracted from cells by vortexing for 15 min in 1N NaOH. Standards were prepared by dissolving melanin (Sigma) in 1 N NaOH (Eller, et al., 1996). Absorbance of standards and samples was measured at 475 nm. Melanin was expressed as pg melanin/cell.

[5] = system: Cloudman S91 mouse melanoma cell line; assay: Cell count (proliferation, toxicity) of treated S91 cells; format: cell-based
Method: as §1, §2

[6] = range of concentrations up to a toxic dose
[7] = No Penetration Enhancer, concentrations as E85

1-propanol
melanogenesis in S91 cells (≧2-fold increase = significant) [1, 6]: did not induce significant (≧2-fold increase) melanogenesis

O[C@@H]1CCC[C@H]1O (relative stereo) [1,2-trans-Cyclopentanediol, 1,2-trans-cyclopentanediol]
Concentration Required for ≧2-fold Melanin Induction in S91 Cells [1]: 50 mM

OC1CCCC(O)C1 (stereo not shown) [1,3-cyclohexanediol]
melanogenesis in S91 cells (≧2-fold increase = significant) [1, 6]: did not induce significant (≧2-fold increase) melanogenesis

OC1OCCOC1O (stereo not shown) [1,4-Dioxane-2,3-Diol, 1,4-dioxane-2,3-diol]
Concentration Required for ≧2-fold Melanin Induction in S91 Cells [1]: 0.5 mM

CC(CO)CO [2-M-1,3-PG, 2-Methyl-1,3-Propanediol]
Pigmentation Rating Normalized to 1,2-PG [2, 7]: 2.9 ± 0.4
Pigmentation Rating Normalized to 1M [2, 7]: 0.044 ± 0.006
Pigmentation Rating Background Corrected ([2]; No Penetration Enhancer, corrected for Nair control, concentrations as E85): 0.50 ± 0.07
Pigmentation Rating ([2]; No Penetration Enhancer, sites c and d, 13.61M 1,2-PG, 11.0M 2,3-M-2,3-BD, 11.3M 2-M-1,3-PG, 8.7M 1,2-cs-CPD, 4.0M 3,3-M-1,2-BD): 0.58 ± 0.08
melanogenesis in guinea pigs (in words) ([2]; same relative body position): only slightly better melanogenic agents than propylene glycol
relative melanogenesis rating (mean ±SE), scale 0-4 ([2]; site a (head), PG 13.6M, 2,3-BD 10.95M, 1,2-cs-CPD 10.7M full strength, 3,3-M-1,2-BD 4M in ethanol): 1.25 ± 0.52
relative melanogenesis rating (mean ±SE), scale 0-4 ([2]; site c, full strength, 3,3-M-1,2-BD 4M in ethanol): 0.58 ± 0.08^2
Concentration Required for ≧2-fold Melanin Induction in S91 Cells [1]: 50 mM

O=CC[C@H](O)[C@H](O)CO [2-deoxy-D-ribose]
melanogenesis in S91 cells (≧2-fold increase = significant) [1, 6]: did not induce significant (≧2-fold increase) melanogenesis

CC(O)(CO)c1ccccc1 (stereo not shown) [2-phenyl-1,2-propanediol]
melanogenesis in S91 cells (≧2-fold increase = significant) [1, 6]: did not induce significant (≧2-fold increase) melanogenesis

CC(C)O [2-propanol]
melanogenesis in S91 cells (≧2-fold increase = significant) [1, 6]: did not induce significant (≧2-fold increase) melanogenesis

O=C1CCCN1 [2-pyrrolidone]
melanogenesis in S91 cells (≧2-fold increase = significant) [1, 6]: did not induce significant (≧2-fold increase) melanogenesis
morphological differentiation of S91 cells [3]: profound morphological differentiation

CCCCCCCCCCCCN1CCCCCC1=O [Azone®]
melanogenesis in S91 cells (≧2-fold increase = significant) [1, 6]: did not induce significant (≧2-fold increase) melanogenesis

CC(O)CCO (stereo not shown) [BD-1,3, 1,3-butanediol]
Trypsinization Detachment Time ([4]; 50 mM): 3 min
Trypsinization Detachment Time ([4]; 150 mM): 6 min
pg Melanin/Cell ([1]; 50 mM): 15.5 pg Melanin/Cell
ug Melanin ([1]; 50 mM): 0.99 µg
pg Melanin/Cell ([1]; 150 mM): 18.1 pg Melanin/Cell
ug Melanin ([1]; 150 mM): 0.87 µg
Cells (×10^6) ([5]; 50 mM): 0.064 ×10^6
Cells (×10^6) ([5]; 150 mM): 0.048 ×10^6
reduction of cell numbers ([5]; 150 mM): one-third
Morphology Flattened Cuboidal ([3]; 50 mM): 75%
Morphology Rounded Spindly ([3]; 50 mM): 25%
Morphology Flattened Cuboidal ([3]; 150 mM): 100%

CCCCCCCCCCCCC/C=C/[C@@H](O)[C@@H](N)CO [D-sphingosine, reference compound]
effect on melanogenesis induced by propylene glycol in S91 cells [1]: enhanced melanogenesis induced by propylene glycol
melanogenesis in S91 cells (in words) [1]: induced melanogenesis

CCO [ETOH, Ethanol]
Trypsinization Detachment Time ([4]; 1.0% (170 mM)): 3 min
Trypsinization Detachment Time ([4]; 2.0% (340 mM)): 3 min
Trypsinization Detachment Time ([4]; 5.0% (850 mM)): 3 min
pg Melanin/Cell ([1]; 1.0% (170 mM)): 11.0 pg Melanin/Cell
ug Melanin ([1]; 1.0% (170 mM)): 1.14 µg
pg Melanin/Cell ([1]; 2.0% (340 mM)): 12.5 pg Melanin/Cell
ug Melanin ([1]; 2.0% (340 mM)): 1.25 µg
pg Melanin/Cell ([1]; 5.0% (850 mM)): 5.3 pg Melanin/Cell
ug Melanin ([1]; 5.0% (850 mM)): 0.17 µg
induction of melanogenesis (in words) [1]: did not induce melanogenesis
effect on cells ([5]; 340 mM): no effect on cells
toxicity (low cell survival) ([5]; 850 mM): toxic
Cells (×10^6) ([5]; 1.0% (170 mM)): 0.104 ×10^6
Cells (×10^6) ([5]; 2.0% (340 mM)): 0.100 ×10^6
Cells (×10^6) ([5]; 5.0% (850 mM)): 0.032 ×10^6
Morphology Rounded Spindly ([3]; 1.0% (170 mM)): 100%
Morphology Rounded Spindly ([3]; 2.0% (340 mM)): 100%
Morphology Rounded Spindly ([3]; 5.0% (850 mM)): 100%

OCC(O)CO [G, Glycerol]
Trypsinization Detachment Time ([4]; 50 mM): 3 min
Trypsinization Detachment Time ([4]; 150 mM): 3 min
pg Melanin/Cell ([1]; 50 mM): 11.2 pg Melanin/Cell
ug Melanin ([1]; 50 mM): 1.03 µg
pg Melanin/Cell ([1]; 150 mM): 13.0 pg Melanin/Cell
ug Melanin ([1]; 150 mM): 1.09 µg
induction of melanogenesis (in words) [1]: only a slight effect on melanogenesis and differentiation
Cells (×10^6) ([5]; 50 mM): 0.092 ×10^6
Cells (×10^6) ([5]; 150 mM): 0.084 ×10^6
Morphology Rounded Spindly ([3]; 50 mM): 100%
Morphology Flattened Cuboidal ([3]; 150 mM): 25%
Morphology Rounded Spindly ([3]; 150 mM): 75%

CC1CNCCN1S(=O)(=O)c1cccc2cnccc12 (stereo not shown) [H7, 1-[5-isoquinolinyl-sulfonyl]-2-methyl-piperazine, reference compound]
effect on melanogenesis induced by propylene glycol in S91 cells [1]: enhanced melanogenesis induced by propylene glycol
melanogenesis in S91 cells (in words) [1]: induced melanogenesis

CNC[C@H](O)[C@@H](O)[C@H](O)[C@H](O)CO [N-methyl-D-glucamine]
melanogenesis in S91 cells (≧2-fold increase = significant) [1, 6]: did not induce significant (≧2-fold increase) melanogenesis

OCCCO [PG-1,3, 1,3-propanediol]
Trypsinization Detachment Time ([4]; 50 mM): 3 min
Trypsinization Detachment Time ([4]; 150 mM): 6 min
pg Melanin/Cell ([1]; 50 mM): 20.4 pg Melanin/Cell
ug Melanin ([1]; 50 mM): 1.31 µg
pg Melanin/Cell ([1]; 150 mM): 23.6 pg Melanin/Cell
ug Melanin ([1]; 150 mM): 1.04 µg
Cells (×10^6) ([5]; 50 mM): 0.064 ×10^6
Cells (×10^6) ([5]; 150 mM): 0.044 ×10^6
reduction of cell numbers ([5]; 150 mM): one-third
Morphology Flattened Cuboidal ([3]; 50 mM): 25%
Morphology Rounded Spindly ([3]; 50 mM): 75%
Morphology Flattened Cuboidal ([3]; 150 mM): 50%
Morphology Rounded Spindly ([3]; 150 mM): 50%

C[C@H](O)CO [PG-S-1,2, (S)-(+)-1,2-Propanediol]
Trypsinization Detachment Time ([4]; 50 mM): 3 min
Trypsinization Detachment Time ([4]; 150 mM): 6 min
pg Melanin/Cell ([1]; 50 mM): 17.1 pg Melanin/Cell
ug Melanin ([1]; 50 mM): 1.51 µg
pg Melanin/Cell ([1]; 150 mM): 25.5 pg Melanin/Cell
ug Melanin ([1]; 150 mM): 2.04 µg
Cells (×10^6) ([5]; 50 mM): 0.088 ×10^6
Cells (×10^6) ([5]; 150 mM): 0.080 ×10^6
effect on cell proliferation ([5]; levels used in this experiment (50 and 150 mM)): no reduction of cell proliferation
Morphology Flattened Cuboidal ([3]; 50 mM): 25%
Morphology Rounded Spindly ([3]; 50 mM): 75%
Morphology Flattened Cuboidal ([3]; 150 mM): 50%
Morphology Rounded Spindly ([3]; 150 mM): 50%

O=C1O[C@H]([C@@H](O)CO)C(O)=C1O [ascorbic acid]
melanogenesis in S91 cells (≧2-fold increase = significant) [1, 6]: did not induce significant (≧2-fold increase) melanogenesis

O=c1[nH]cc(CO)c(=O)[nH]1 [hydroxymethyl uracil]
melanogenesis in S91 cells (≧2-fold increase = significant) [1, 6]: did not induce significant (≧2-fold increase) melanogenesis

CCCCCCCC/C=C\CCCCCCCC(=O)O [oleic acid]
melanogenesis in S91 cells (≧2-fold increase = significant) [1, 6]: did not induce significant (≧2-fold increase) melanogenesis

O=C(O)C(O)C(O)C(=O)O (stereo not shown) [tartaric acid]
melanogenesis in S91 cells (≧2-fold increase = significant) [1, 6]: did not induce significant (≧2-fold increase) melanogenesis

CCCC[N+](CCCC)(CCCC)CCCC.[Cl-] [tetrabutylammonium chloride]
melanogenesis in S91 cells (≧2-fold increase = significant) [1]: did not induce significant (≧2-fold increase) melanogenesis

C[C@]12CC[C@@H]3c4ccc(O)cc4CC[C@H]3[C@@H]1CC[C@@H]2O [β-Estradiol, β-estradiol, reference compound]
Concentration Required for ≧2-fold Melanin Induction in S91 Cells [1]: 0.5 mM

— patent publication US7250157B2, “Dermatological compositions and methods” (Applied Genetics Incorporated Dermatics, priority 1996, dated 2007)
